Measurements published in patent publication US20080139617A1 (priority 2006, published 2008).

Each compound was assayed against T1, human V1a receptor (Homo sapiens, UniProt P37288) (assay: human V1a receptor binding (3H-Vasopressin SPA, membranes of transfected HEK293 cells)). Settings: displacement of 3H-Vasopressin; Ki calculated from IC50 using the Cheng-Prussoff equation.
T1 construct: expressed in transfected cells; host or cells: HEK293 cells, transiently transfected; membrane preparation
T1 sequence (P37288 whole entry): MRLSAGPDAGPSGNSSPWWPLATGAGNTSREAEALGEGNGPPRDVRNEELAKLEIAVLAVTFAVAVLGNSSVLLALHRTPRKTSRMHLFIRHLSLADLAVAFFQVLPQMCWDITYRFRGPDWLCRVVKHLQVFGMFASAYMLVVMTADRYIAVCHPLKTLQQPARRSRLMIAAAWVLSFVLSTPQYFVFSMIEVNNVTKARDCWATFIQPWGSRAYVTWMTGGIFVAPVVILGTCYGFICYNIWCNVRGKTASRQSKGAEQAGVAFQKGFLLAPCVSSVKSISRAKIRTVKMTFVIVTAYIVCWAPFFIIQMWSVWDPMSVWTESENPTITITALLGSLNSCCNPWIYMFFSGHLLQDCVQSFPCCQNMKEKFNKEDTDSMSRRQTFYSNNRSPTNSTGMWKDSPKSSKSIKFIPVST
Experimental: The human V1a receptor was cloned by RT-PCR from total human liver RNA. The coding sequence was subcloned in an expression vector after sequencing to confirm the identity of the amplified sequence. […] Cell membranes were prepared from HEK293 cells transiently transfected with the expression vector and grown in 20 liter fermenters with the following protocol.
50 g of cells were resuspended in 30 ml freshly prepared ice cold Lysis buffer (50 mM HEPES, 1 mM EDTA, 10 mM MgCl2 adjusted to pH=7.4+complete cocktail of protease inhibitor (Roche Diagnostics)), homogenized with Polytron for 1 min, and sonicated on ice for 2×2 minutes at 80% intensity (Vibracell sonicator). The preparation was centrifuged 20 min at 500 g at 4° C., the pellet was discarded, and the supernatant centrifuged 1 hour at 43'000 g at 4° C. (19'000 rpm). The pellet was resuspended in 12.5 ml Lysis buffer+12.5 ml Sucrose 20% and homogenized using a Polytron for 1-2 min. The protein concentration was determined by the Bradford method and aliquots were stored at −80° C. until use. For binding studies, 60 mg Yttrium silicate SPA beads (Amersham) were mixed with an aliquot of membrane in binding buffer (50 mM Tris, 120 mM NaCl, 5 mM KCl, 2 mM CaCl2, 10 mM MgCl2) for 15 minutes with mixing. 50 ul of bead/membrane mixture was then added to each well of a 96 well plate, followed by 50 ul of 4 nM 3H-Vasopressin (American Radiolabeled Chemicals). For total binding measurement 100 ul of binding buffer were added to the respective wells, for non-specific binding 100 ul of 8.4 mM cold vasopressin were added, and for compound testing 100 ul of a serial dilution of each compound in 2% DMSO were added. The plate was incubated Ih at room temperature, centrifuged 1 min at 1000 g and counted on a Packard Top-Count. Non-specific binding counts were subtracted from each well and data was normalized to the maximum specific binding set at 100%. To calculate an IC 50, the curve was fitted using a non-linear regression model (XLfit) and the Ki was calculated using the Cheng-Prussoff equation.

Row | SMILES | Ki [nM]
1 | N#CCc1cc(Cl)cc2cc(C(=O)N3CCC(n4c(=O)[nH]c5ccccc54)CC3)[nH]c12 [Example 46, {5-Chloro-2-[4-(2-oxo-2,3-dihydro-benzoimidazol-1-yl)-piperidine-1-carbonyl]-1H-indol-7-yl}-acetonitrile] | 35.5
2 | N#CCn1c(C(=O)N2CCC(n3c(=O)[nH]c4ccccc43)CC2)cc2cc(Br)ccc21 [Example 3, {5-Bromo-2-[4-(2-oxo-2,3-dihydro-benzoimidazol-1-yl)-piperidine-1-carbonyl]-indol-1-yl}-acetonitrile] | 12
3 | N#CCn1c(C(=O)N2CCC(n3c(=O)[nH]c4ccccc43)CC2)cc2cc(Cl)ccc21 [Example 45, {5-Chloro-2-[4-(2-oxo-2,3-dihydro-benzoimidazol-1-yl)-piperidine-1-carbonyl]-indol-1-yl}-acetonitrile] | 32
4 | CCOC(=O)Cc1c(C(=O)N2CCC(n3c(=O)[nH]c4ccccc43)CC2)[nH]c2ccccc12 [Example 14, {2-[4-(2-Oxo-2,3-dihydro-benzoimidazol-1-yl)-piperidine-1-carbonyl]-1H-indol-3-yl}-acetic acid ethyl ester] | 41.7
5 | O=C(c1cc2cc(Cl)ccc2[nH]1)N1CCC(n2nnc3ccccc32)CC1 [Example 48, (4-Benzotriazol-1-yl-piperidin-1-yl)-(5-chloro-1H-indol-2-yl)-methanone] | 385
6 | COc1ccc2[nH]c(C(=O)N3CCC(n4c(=O)[nH]c5ccccc54)CC3)c(NC(=O)c3ccccc3[N+](=O)[O-])c2c1 [Example 10, N-{5-Methoxy-2-[4-(2-oxo-2,3-dihydro-benzoimidazol-1-yl)-piperidine-1-carbonyl]-1H-indol-3-yl}-2-nitro-benzamide] | 20
7 | O=C(c1cc2cc(Cl)ccc2[nH]1)N1CCC(N2C(=O)Cc3ccccc32)CC1 [Example 47, 1-[1-(5-Chloro-1H-indole-2-carbonyl)-piperidin-4-yl]-1,3-dihydro-indol-2-one] | 64.6
8 | O=C(c1cc2cccc(OCc3ccccc3)c2[nH]1)N1CCC(n2c(=O)[nH]c3ccccc32)CC1 [Example 37, 1-[1-(7-Benzyloxy-1H-indole-2-carbonyl)-piperidin-4-yl]-1,3-dihydro-benzoimidazol-2-one] | 21.9
9 | Cc1ccc2[nH]c(C(=O)N3CCC(n4c(=O)[nH]c5ccccc54)CC3)c(NC(=O)c3ccc(F)cc3)c2c1 [Example 11] | 39.8
